These are literature values, as cited in patent US20050218054A1, “Apparatus for Producing sterilized water” (priority 2002, published 2005).

The conditions of the data set: same chlorine concentration.

On to `OCl` [hypochlorous acid ion], for which the “Sterilization power relative to hypochlorous acid (HOCL)” value is given as “about 1/80”.
